{"source": "paper PMC6099558", "about": "“N-oxide alkaloids from Crinum amabile (Amaryllidaceae)” (Molecules : A Journal of Synthetic Chemistry and Natural …, 2018)", "key": {"AChE": {"target": "AChE (Electrophorus electricus, UniProt O42275)", "sequence (O42275 24-633)": "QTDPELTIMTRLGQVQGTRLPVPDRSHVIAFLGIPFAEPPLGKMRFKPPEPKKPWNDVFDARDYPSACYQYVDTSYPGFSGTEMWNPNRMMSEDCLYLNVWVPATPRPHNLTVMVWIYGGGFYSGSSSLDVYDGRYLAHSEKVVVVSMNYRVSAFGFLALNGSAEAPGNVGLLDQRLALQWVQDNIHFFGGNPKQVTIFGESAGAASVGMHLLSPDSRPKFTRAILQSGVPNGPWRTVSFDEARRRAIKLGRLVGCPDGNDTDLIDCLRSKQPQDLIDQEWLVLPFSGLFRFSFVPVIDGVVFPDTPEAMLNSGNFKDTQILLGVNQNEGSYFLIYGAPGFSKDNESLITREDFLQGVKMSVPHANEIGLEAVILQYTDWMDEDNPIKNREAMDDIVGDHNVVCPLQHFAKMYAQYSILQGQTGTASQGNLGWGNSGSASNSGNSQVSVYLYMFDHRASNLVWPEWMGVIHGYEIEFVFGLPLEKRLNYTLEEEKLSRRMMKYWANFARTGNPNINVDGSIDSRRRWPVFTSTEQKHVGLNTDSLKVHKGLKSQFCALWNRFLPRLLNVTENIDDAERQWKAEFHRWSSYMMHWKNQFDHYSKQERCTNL", "assay": "Acetylcholinesterase inhibitory activity (Ellman method, modified)", "format": "biochemical", "protocol": "(§1) Cholinesterase inhibitory activities were analyzed as by Ellman and co-workers with some modifications as by López and co-workers. Fifty microliters of AChE or BuChE phosphate buffer (8m M K2HPO4, 2.3 mM NaH2PO4, 0.15 M NaCl, pH 7.5) and 50 μL of the sample dissolved in the same buffer were added to the wells. The plates were incubated for 30 min at room temperature before 100 μL of the substrate solution (0.1 M Na2HPO4, […], and 0.6 mM acetylthiocholine iodide, ATCI, or 0.24 mM butyrylthiocholine iodide, BTCI, in Millipore water, pH 7.5) was added. The absorbance was read in a Labsystem microplate reader (Helsinki, Finland) at 405 nm after 10 min. […] In a first step, samples were assessed at 10, 100 and 200 µg mL^−1 towards both enzymes. […] Enzyme activity was calculated as a percentage compared to an assay using a buffer without any inhibitor. The cholinesterase inhibitory data were analyzed with the software Microsoft Office Excel 2010."}, "BuChE": {"target": "BuChE (Equus caballus, UniProt P81908)", "sequence (P81908 whole entry)": "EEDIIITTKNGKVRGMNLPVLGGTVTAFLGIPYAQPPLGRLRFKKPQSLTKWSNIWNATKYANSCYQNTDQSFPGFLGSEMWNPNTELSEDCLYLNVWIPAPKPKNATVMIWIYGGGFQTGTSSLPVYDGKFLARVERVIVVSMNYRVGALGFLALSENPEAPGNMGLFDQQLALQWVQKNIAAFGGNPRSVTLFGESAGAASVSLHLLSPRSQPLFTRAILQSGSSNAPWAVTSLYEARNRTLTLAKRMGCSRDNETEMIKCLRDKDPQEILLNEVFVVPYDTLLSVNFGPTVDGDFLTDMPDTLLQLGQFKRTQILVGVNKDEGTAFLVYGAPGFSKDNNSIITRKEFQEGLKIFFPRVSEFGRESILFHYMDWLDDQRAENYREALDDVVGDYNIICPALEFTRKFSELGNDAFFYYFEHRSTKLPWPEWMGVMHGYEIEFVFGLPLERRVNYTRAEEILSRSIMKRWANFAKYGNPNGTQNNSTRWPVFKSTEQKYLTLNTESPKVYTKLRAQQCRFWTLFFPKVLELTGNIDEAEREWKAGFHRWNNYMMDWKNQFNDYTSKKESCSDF", "assay": "Butyrylcholinesterase inhibitory activity (Ellman method, modified)", "format": "biochemical", "protocol": "as §1"}, "[1]": {"system": "Trypanosoma brucei rhodesiense (trypomastigotes forms, STIB 900 strain)", "assay": "In vitro antiprotozoal activity against T. brucei rhodesiense", "format": "cell-based", "settings": "read-out: T. brucei rhodesiense IC50", "protocol": "(§2) In vitro tests for the biological activity of the alkaloids isolated from C. amabile against Trypanosoma brucei rhodesiense (trypomastigotes forms, STIB 900 strain), Trypanosoma cruzi (axenic grown amastigotes forms, Tulahuen C4 strain), Leishmania donovani (amastigotes forms, MHOM-ET-67/L82 strain), and Plasmodium falciparum (intraerythrocytic forms, IEF, NF54 strain) and a cytotoxicity test against the mammalian L6 cell line from rat skeletal myoblasts were carried out at the Swiss Tropical and Public Health Institute (Swiss TPH, Basel, Switzerland) according to established protocols as described by Orhan and co-workers. The reference drugs used in these assays were melarsoprol, benznidazole, miltefosine, chloroquine and podophyllotoxin, respectively."}, "[2]": {"system": "Trypanosoma cruzi (axenic grown amastigotes forms, Tulahuen C4 strain)", "assay": "In vitro antiprotozoal activity against T. cruzi", "format": "cell-based", "settings": "read-out: T. cruzi IC50", "protocol": "as §2"}, "[3]": {"system": "Leishmania donovani (amastigotes forms, MHOM-ET-67/L82 strain)", "assay": "In vitro antiprotozoal activity against L. donovani", "format": "cell-based", "settings": "read-out: L. donovani IC50", "protocol": "as §2"}, "[4]": {"system": "Plasmodium falciparum (intraerythrocytic forms, IEF, NF54 strain)", "assay": "In vitro antiprotozoal activity against P. falciparum NF54", "format": "cell-based", "protocol": "as §2"}, "[5]": {"assay": "Cytotoxicity test against mammalian L6 cell line", "format": "cell-based", "settings": "L6 cells (rat skeletal myoblasts)", "protocol": "as §2"}, "[6]": {"system": "chloroquine-sensitive strain of Plasmodium falciparum", "parameters": "method as in PMID 8229016", "settings": "read-out: IC50 against chloroquine-sensitive strain of Plasmodium falciparum; cited from earlier work"}, "[7]": {"system": "chloroquine-resistant strain of Plasmodium falciparum", "settings": "read-out: IC50 against chloroquine-resistant strain of Plasmodium falciparum; cited from earlier work"}, "[8]": {"settings": "trypomastigotes forms, STIB 900 strain"}, "[9]": {"settings": "amastigotes forms, Tulahuen C4 strain"}, "[10]": {"settings": "amastigotes forms, MHOM-ET-67/L82 strain"}, "[11]": {"settings": "intraerythrocytic forms, NF54 strain, read-out: P. falciparum IC50"}}, "note": "Where two headings read alike, the source gives them in different places.", "data": [{"smiles": "CN1CCC23c4cc5c(cc4C4OC(CCC12)C3O4)OCO5", "note": "(centres unmarked) [Augustamine (22), Augustamine]", "values": [{"measurement": "AChE inhibitory activity (in words)", "setting": "AChE", "result": "did not show any cholinesterase inhibitory activities"}, {"measurement": "BuChE inhibitory activity (in words)", "setting": "BuChE", "result": "did not show any cholinesterase inhibitory activities"}, {"measurement": "IC50", "setting": "[1]; [8]", "result": "19.2 ± 2.97", "unit": "µg/mL"}, {"measurement": "IC50", "setting": "[2]; [9]", "result": "54 ± 4.53", "unit": "µg/mL"}, {"measurement": "IC50", "setting": "[3]; [10]", "result": "> 100", "unit": "µg/mL"}, {"measurement": "IC50", "setting": "[4]; [11]", "result": "20.4 ± 0.21", "unit": "µg/mL"}, {"measurement": "IC50", "setting": "[5]", "result": "81.55 ± 0.64", "unit": "µg/mL"}]}, {"smiles": "CO[C@@H]1C[C@H]2N3CC[C@@]2(c2cc4c(cc2C3)OCO4)[C@H]2O[C@@H]12", "note": "[Augustine (13), Augustine]", "values": [{"measurement": "AChE inhibitory activity (in words)", "setting": "AChE", "result": "moderate"}, {"measurement": "IC50", "setting": "[1]; [8]", "result": "15.1 ± 1.06", "unit": "µg/mL"}, {"measurement": "IC50", "setting": "[2]; [9]", "result": "56 ± 0.71", "unit": "µg/mL"}, {"measurement": "IC50", "setting": "[3]; [10]", "result": "> 100", "unit": "µg/mL"}, {"measurement": "IC50", "setting": "[4]; [11]", "result": "14.2 ± 0.14", "unit": "µg/mL"}, {"measurement": "IC50", "setting": "[5]", "result": "> 100", "unit": "µg/mL"}, {"measurement": "IC50", "setting": "[6]", "result": 460, "unit": "nM"}, {"measurement": "IC50", "setting": "[7]", "result": 600, "unit": "nM"}]}, {"smiles": "CO[C@@H]1C[C@@H]2[C@@]3(CC[N@@+]2([O-])Cc2cc4c(cc23)OCO4)[C@H]2O[C@@H]12", "note": "[Augustine N-oxide (1), Augustine N-oxide]", "values": [{"measurement": "IC50", "setting": "[1]; [8]", "result": "58.9 ± 11.5", "unit": "µg/mL"}, {"measurement": "IC50", "setting": "[2]; [9]", "result": "66.2 ± 11.8", "unit": "µg/mL"}, {"measurement": "IC50", "setting": "[3]; [10]", "result": "> 100", "unit": "µg/mL"}, {"measurement": "IC50", "setting": "[4]; [11]", "result": "36.6 ± 4.74", "unit": "µg/mL"}, {"measurement": "IC50", "setting": "[5]", "result": "> 100", "unit": "µg/mL"}]}, {"smiles": "CO[C@H]1C=C[C@@]23CCN(Cc4cc5c(cc42)OCO5)[C@@H]3C1", "note": "[Buphanisine (8), Buphanisine]", "values": [{"measurement": "AChE inhibitory activity (in words)", "setting": "AChE", "result": "low"}, {"measurement": "IC50", "setting": "[1]; [8]", "result": "16.5 ± 0.57", "unit": "µg/mL"}, {"measurement": "IC50", "setting": "[2]; [9]", "result": "55.5 ± 4.6", "unit": "µg/mL"}, {"measurement": "IC50", "setting": "[3]; [10]", "result": "> 100", "unit": "µg/mL"}, {"measurement": "IC50", "setting": "[4]; [11]", "result": "4.28 ± 0.18", "unit": "µg/mL"}, {"measurement": "IC50", "setting": "[5]", "result": "72.8 ± 5.02", "unit": "µg/mL"}]}, {"smiles": "CO[C@H]1C=C[C@@]23CC[N@@+]([O-])(Cc4cc5c(cc42)OCO5)[C@@H]3C1", "note": "[Buphanisine N-oxide (2), Buphanisine N-oxide]", "values": [{"measurement": "IC50", "setting": "[1]; [8]", "result": "55.2 ± 4.31", "unit": "µg/mL"}, {"measurement": "IC50", "setting": "[2]; [9]", "result": "64 ± 1.34", "unit": "µg/mL"}, {"measurement": "IC50", "setting": "[3]; [10]", "result": "> 100", "unit": "µg/mL"}, {"measurement": "IC50", "setting": "[4]; [11]", "result": "32.55 ± 0.07", "unit": "µg/mL"}, {"measurement": "IC50", "setting": "[5]", "result": "> 100", "unit": "µg/mL"}]}, {"smiles": "O[C@H]1C=C[C@@]23CCN(Cc4cc5c(cc42)OCO5)[C@@H]3C1", "note": "[Crinine (10), Crinine]", "values": [{"measurement": "IC50", "setting": "[1]; [8]", "result": "18.9 ± 0.78", "unit": "µg/mL"}, {"measurement": "IC50", "setting": "[2]; [9]", "result": "57.5 ± 6.86", "unit": "µg/mL"}, {"measurement": "IC50", "setting": "[3]; [10]", "result": "> 100", "unit": "µg/mL"}, {"measurement": "IC50", "setting": "[4]; [11]", "result": "30.9 ± 2.19", "unit": "µg/mL"}, {"measurement": "IC50", "setting": "[5]", "result": "> 100", "unit": "µg/mL"}]}, {"smiles": "O=C(Cn1ccnc1[N+](=O)[O-])NCc1ccccc1", "note": "[benznidazole, reference compound]", "values": [{"measurement": "IC50", "setting": "[2]; TULAHUEN", "result": "0.865 ± 0.08", "unit": "µg/mL"}]}, {"smiles": "CCN(CC)CCCC(C)Nc1ccnc2cc(Cl)ccc12", "note": "(centres unmarked) [chloroquine, reference compound]", "values": [{"measurement": "IC50", "setting": "[4]; NF54, read-out: P. falciparum IC50", "result": "0.004 ± 0.0007", "unit": "µg/mL"}]}, {"smiles": "Nc1nc(N)nc(Nc2ccc([As]3SCC(CO)S3)cc2)n1", "note": "(centres unmarked) [melarsoprol, reference compound]", "values": [{"measurement": "IC50", "setting": "[1]", "result": "0.003 ± 0.001", "unit": "µg/mL"}]}, {"smiles": "CCCCCCCCCCCCCCCCOP(=O)([O-])OCC[N+](C)(C)C", "note": "[miltefosine, reference compound]", "values": [{"measurement": "IC50", "setting": "[3]", "result": "0.515 ± 0.06", "unit": "µg/mL"}]}, {"smiles": "COc1cc([C@@H]2c3cc4c(cc3[C@H](O)[C@H]3COC(=O)[C@H]23)OCO4)cc(OC)c1OC", "note": "[podophyllotoxin, reference compound]", "values": [{"measurement": "IC50", "setting": "[5]", "result": "0.004 ± 0.0007", "unit": "µg/mL"}]}]}
